Data published in PMC3763632, “Radiosynthesis and Radiotracer Properties of a 7-(2-[^18F]Fluoroethoxy)-6-methoxypyrrolidinylquinazoline for Imaging of Phosphodiesterase 10A with PET” (Pharmaceuticals, 2012).
“And” between values parts separate entries of the source, which are not always exact repeats. Equal entries are not always repeated.

Assay: Biodistribution after i.v. injection
Type: in vivo, female CD-1 mice
Description: The organ distribution of [^18F]IV after i.v. injection was investigated in female CD-1 mice. Time-activity data for ^18F corresponding uptake in peripheral organs, in the brain and in particular in the striatum at 5, 30, 60 and 120 min p.i. are presented in Table 2.
Conscious mice received a tail-vein injection of about 300 kBq of [^18F]IV, dissolved in 200 µL isotonic saline. At 5, 30, 60 and 120 min p.i. animals (n = 3–6 per time) were anaesthetized, and blood and urine samples were taken. After sacrifice, organs of interest were removed, separated, weighed, and radioactivity was measured in a calibrated γ-counter (Wallac WIZARD, Perkin Elmer, Waltham, MA, USA). Striatum was dissected from the brain and investigated separately. The percentage of the injected dose per gram of wet tissue (% ID/g) was calculated by the quotient of tissue counts and initial dose counts, and weight of the tissue sample.

Compound: COc1cc2c(N3CC[C@@H](Oc4cnc5ccccc5n4)C3)ncnc2cc1OCC[18F] [[^18F]IV, (R)-7-(2-[^18F]Fluoroethoxy)-6-methoxy-4-(3-(quinoxalin-2-yloxy)pyrrolidin-1-yl)quinazoline]
- striatum-to-blood ratio (30 min p.i., mice): 1.0
- striatum-to-blood ratio (60 min p.i., mice): 0.8
- striatum-to-blood ratio (120 min p.i., mice): 0.8
- 18F uptake, Adrenals (control, 5 min p.i.): 25.4 ± 5.87 % ID/g Wet Weight
- 18F uptake, Bladder (control, 5 min p.i.): 1.85 ± 0.39 % ID/g Wet Weight
- 18F uptake, Blood (control, 5 min p.i.): 1.88 ± 0.08 % ID/g Wet Weight
- 18F uptake, Brain (control, 5 min p.i.): 1.99 ± 0.21 % ID/g Wet Weight
- 18F uptake, Colon (control, 5 min p.i.): 0.55 ± 0.05 % ID/g Wet Weight
- 18F uptake, Femurs (control, 5 min p.i.): 2.00 ± 0.36 % ID/g Wet Weight
- 18F uptake, Femurs (fl.) (flushed) (control, 5 min p.i.): 1.11 ± 0.32 % ID/g Wet Weight
- 18F uptake, Gonads (control, 5 min p.i.): 2.58 ± 0.46 % ID/g Wet Weight
- 18F uptake, Heart (control, 5 min p.i.): 4.01 ± 0.47 % ID/g Wet Weight
- 18F uptake, Intestine (control, 5 min p.i.): 13.5 % ID/g Wet Weight and 13.5 ± 4.15 % ID/g Wet Weight
- 18F uptake, Kidneys (control, 5 min p.i.): 7.65 ± 0.54 % ID/g Wet Weight
- 18F uptake, Liver (control, 5 min p.i.): 20.5 % ID/g Wet Weight and 20.5 ± 1.87 % ID/g Wet Weight
- 18F uptake, Lungs (control, 5 min p.i.): 4.01 ± 0.51 % ID/g Wet Weight
- 18F uptake, Muscles (control, 5 min p.i.): 1.75 ± 0.12 % ID/g Wet Weight
- 18F uptake, Pancreas (control, 5 min p.i.): 5.19 ± 0.42 % ID/g Wet Weight
- 18F uptake, Plasma (control, 5 min p.i.): 3.97 ± 1.41 % ID/g Wet Weight
- 18F uptake, Spleen (control, 5 min p.i.): 4.23 ± 0.51 % ID/g Wet Weight
- 18F uptake, Stomach (control, 5 min p.i.): 6.14 ± 2.04 % ID/g Wet Weight
- 18F uptake, Striatum (control, 5 min p.i.): 2.3 % ID/g Wet Weight and 2.32 % ID/g Wet Weight and 2.32 ± 0.49 % ID/g Wet Weight
- 18F uptake, Thymus (control, 5 min p.i.): 3.10 ± 0.45 % ID/g Wet Weight
- 18F uptake, Urine (control, 5 min p.i.): 56.4 % ID/g Wet Weight and 56.4 ± 105 % ID/g Wet Weight
- 18F uptake, Bladder (control, 30 min p.i.): 3.51 ± 1.39 % ID/g Wet Weight
- 18F uptake, Blood (control, 30 min p.i.): 1.69 ± 0.38 % ID/g Wet Weight
- 18F uptake, Brain (control, 30 min p.i.): 1.54 ± 0.30 % ID/g Wet Weight
- 18F uptake, Colon (control, 30 min p.i.): 0.88 ± 0.44 % ID/g Wet Weight
- 18F uptake, Femurs (control, 30 min p.i.): 2.14 ± 1.13 % ID/g Wet Weight
- 18F uptake, Femurs (fl.) (flushed) (control, 30 min p.i.): 0.67 ± 0.24 % ID/g Wet Weight
- 18F uptake, Gonads (control, 30 min p.i.): 3.94 ± 0.84 % ID/g Wet Weight
- 18F uptake, Heart (control, 30 min p.i.): 2.93 ± 0.71 % ID/g Wet Weight
- 18F uptake, Intestine (control, 30 min p.i.): 43.2 ± 21.9 % ID/g Wet Weight
- 18F uptake, Kidneys (control, 30 min p.i.): 5.34 ± 1.4 % ID/g Wet Weight
- 18F uptake, Liver (control, 30 min p.i.): 16.4 ± 4.00 % ID/g Wet Weight
- 18F uptake, Lungs (control, 30 min p.i.): 3.51 ± 1.26 % ID/g Wet Weight
- 18F uptake, Muscles (control, 30 min p.i.): 1.31 ± 0.32 % ID/g Wet Weight
- 18F uptake, Pancreas (control, 30 min p.i.): 3.14 ± 0.70 % ID/g Wet Weight
- 18F uptake, Plasma (control, 30 min p.i.): 2.87 ± 0.54 % ID/g Wet Weight
- 18F uptake, Spleen (control, 30 min p.i.): 2.85 ± 0.60 % ID/g Wet Weight
- 18F uptake, Stomach (control, 30 min p.i.): 15.8 ± 6.09 % ID/g Wet Weight
- 18F uptake, Striatum (control, 30 min p.i.): 1.69 ± 0.44 % ID/g Wet Weight
- 18F uptake, Thymus (control, 30 min p.i.): 2.61 ± 0.50 % ID/g Wet Weight
- 18F uptake, Urine (control, 30 min p.i.): 18.5 ± 16.8 % ID/g Wet Weight
- 18F uptake, Adrenals (control, 60 min p.i.): 28.2 ± 11.4 % ID/g Wet Weight
- 18F uptake, Bladder (control, 60 min p.i.): 2.60 ± 0.78 % ID/g Wet Weight
- 18F uptake, Blood (control, 60 min p.i.): 1.45 ± 0.20 % ID/g Wet Weight
- 18F uptake, Brain (control, 60 min p.i.): 1.08 ± 0.26 % ID/g Wet Weight
- 18F uptake, Colon (control, 60 min p.i.): 1.08 ± 0.43 % ID/g Wet Weight
- 18F uptake, Femurs (control, 60 min p.i.): 2.95 ± 3.73 % ID/g Wet Weight
- 18F uptake, Femurs (fl.) (flushed) (control, 60 min p.i.): 0.58 ± 0.42 % ID/g Wet Weight
- 18F uptake, Gonads (control, 60 min p.i.): 3.50 ± 1.22 % ID/g Wet Weight
- 18F uptake, Heart (control, 60 min p.i.): 2.16 ± 0.45 % ID/g Wet Weight
- 18F uptake, Intestine (control, 60 min p.i.): 42.8 % ID/g Wet Weight and 42.8 ± 33.5 % ID/g Wet Weight
- 18F uptake, Kidneys (control, 60 min p.i.): 4.29 ± 0.93 % ID/g Wet Weight
- 18F uptake, Liver (control, 60 min p.i.): 14.5 ± 4.54 % ID/g Wet Weight
- 18F uptake, Lungs (control, 60 min p.i.): 2.37 ± 0.62 % ID/g Wet Weight
- 18F uptake, Muscles (control, 60 min p.i.): 1.22 ± 0.28 % ID/g Wet Weight
- 18F uptake, Pancreas (control, 60 min p.i.): 2.77 ± 0.85 % ID/g Wet Weight
- 18F uptake, Plasma (control, 60 min p.i.): 2.59 ± 0.36 % ID/g Wet Weight
- 18F uptake, Spleen (control, 60 min p.i.): 2.30 ± 0.25 % ID/g Wet Weight
- 18F uptake, Stomach (control, 60 min p.i.): 12.6 ± 5.08 % ID/g Wet Weight
- 18F uptake, Striatum (control, 60 min p.i.): 1.14 ± 0.29 % ID/g Wet Weight
- 18F uptake, Thymus (control, 60 min p.i.): 2.08 ± 0.51 % ID/g Wet Weight
- 18F uptake, Urine (control, 60 min p.i.): 23.1 ± 9.31 % ID/g Wet Weight
- 18F uptake, Skin (control, 60 min p.i., single values, n = 2): 1.45 % ID/g Wet Weight and 1.17 % ID/g Wet Weight
- 18F uptake, Adrenals (control, 120 min p.i.): 19.3 ± 13.2 % ID/g Wet Weight
- 18F uptake, Bladder (control, 120 min p.i.): 1.62 ± 0.28 % ID/g Wet Weight
- 18F uptake, Blood (control, 120 min p.i.): 1.05 ± 0.10 % ID/g Wet Weight
- 18F uptake, Brain (control, 120 min p.i.): 0.77 ± 0.10 % ID/g Wet Weight
- 18F uptake, Colon (control, 120 min p.i.): 3.49 ± 2.41 % ID/g Wet Weight
- 18F uptake, Femurs (control, 120 min p.i.): 1.61 ± 0.35 % ID/g Wet Weight
- 18F uptake, Femurs (fl.) (flushed) (control, 120 min p.i.): 1.15 ± 0.18 % ID/g Wet Weight
- 18F uptake, Gonads (control, 120 min p.i.): 1.64 ± 0.26 % ID/g Wet Weight
- 18F uptake, Heart (control, 120 min p.i.): 1.33 ± 0.20 % ID/g Wet Weight
- 18F uptake, Intestine (control, 120 min p.i.): 49.3 ± 8.03 % ID/g Wet Weight
- 18F uptake, Kidneys (control, 120 min p.i.): 2.13 ± 0.44 % ID/g Wet Weight
- 18F uptake, Liver (control, 120 min p.i.): 7.05 % ID/g Wet Weight and 7.05 ± 1.10 % ID/g Wet Weight
- 18F uptake, Lungs (control, 120 min p.i.): 1.46 ± 0.26 % ID/g Wet Weight
- 18F uptake, Muscles (control, 120 min p.i.): 0.66 ± 0.01 % ID/g Wet Weight
- 18F uptake, Pancreas (control, 120 min p.i.): 1.41 ± 0.07 % ID/g Wet Weight
- 18F uptake, Plasma (control, 120 min p.i.): 2.13 ± 0.80 % ID/g Wet Weight
- 18F uptake, Spleen (control, 120 min p.i.): 1.21 ± 0.24 % ID/g Wet Weight
- 18F uptake, Stomach (control, 120 min p.i.): 10.1 ± 5.96 % ID/g Wet Weight
- 18F uptake, Striatum (control, 120 min p.i.): 0.83 ± 0.10 % ID/g Wet Weight
- 18F uptake, Thymus (control, 120 min p.i.): 1.26 ± 0.07 % ID/g Wet Weight
- 18F uptake, Urine (control, 120 min p.i.): 30.9 % ID/g Wet Weight and 30.9 ± 8.06 % ID/g Wet Weight
- uptake of radioactivity in femur (mice, time not specified): ~ 2 % ID/g
- uptake of radioactivity in femur after removal of bone marrow (mice, time not specified): about 1 % ID/g
